Test [1] concerns the target T1, MASP-2 (Homo sapiens, UniProt O00187). The following applies: known from Presanis et al. Mol. Immunol. 2003; cited from earlier work.
Target sequence in this assay (O00187 16-686): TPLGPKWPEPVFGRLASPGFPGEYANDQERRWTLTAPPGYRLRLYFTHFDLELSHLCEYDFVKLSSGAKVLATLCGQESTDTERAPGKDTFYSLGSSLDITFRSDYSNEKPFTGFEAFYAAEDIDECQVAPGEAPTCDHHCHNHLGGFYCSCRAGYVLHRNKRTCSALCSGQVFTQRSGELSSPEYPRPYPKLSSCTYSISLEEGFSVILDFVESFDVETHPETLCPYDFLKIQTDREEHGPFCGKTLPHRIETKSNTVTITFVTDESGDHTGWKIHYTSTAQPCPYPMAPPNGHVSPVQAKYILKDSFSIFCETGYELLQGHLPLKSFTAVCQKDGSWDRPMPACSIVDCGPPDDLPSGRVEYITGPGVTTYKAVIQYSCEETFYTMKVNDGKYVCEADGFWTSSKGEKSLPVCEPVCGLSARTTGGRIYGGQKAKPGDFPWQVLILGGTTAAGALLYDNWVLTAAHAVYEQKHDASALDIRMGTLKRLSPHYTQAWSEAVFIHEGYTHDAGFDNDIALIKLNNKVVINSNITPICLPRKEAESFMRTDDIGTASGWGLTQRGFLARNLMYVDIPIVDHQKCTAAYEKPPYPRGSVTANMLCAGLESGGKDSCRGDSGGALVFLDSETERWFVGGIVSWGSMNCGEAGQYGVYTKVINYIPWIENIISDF
A further test has as its system MBL-MASP complex. Briefly: Effect of inhibitor on serum MASP activity (captured MBL-MASP complex, pro-urokinase detection). Type of test: biochemical. The following applies: 0-1 μM BMpg vs DMSO control; human serum captured on mannan coated plate; wild-type pro-urokinase and pyro-Glu-Gly-Arg-pNA; 37° C., 2 h. As for the experimental part:
MBL-MASP complexes were captured on a mannan coated plate as described in example 4. After capture, buffer, pro-urokinase and peptide substrate and boroMpg (0-1 μM final concentration) in DMSO, or an equivalent amount of pure DMSO (control) were added and activity was measured. All details were as described in example 4. Activity was expressed as ΔA^405/h^2×1000.
A mannan coated plate was used to capture MBL-MASP complex from diluted human serum. After washing, 100 μl buffer containing 0-1 μM Z-D-Phe-Pro-methoxypropylboroglycine-pinanediolester (BMpg or boroMpg) or buffer containing an identical volume of DMSO (solvent of boroMpg), 15 μl (50 μg/ml) wild-type pro-urokinase and 10 μl (6 mM) pyro-Glu-Gly-Arg-pNA were added. The plate was incubated at 37° C. and colour formation was followed for 2 h with a plate reader at 405 nm. Activities were expressed as ΔA/h^2×1000. All details are as described in Example 4. The results summarized in FIG. 9 show no effect of BMpg on activity of the captured MBL-MASP complex.

The target in a further test is T2, MASP-1 (Homo sapiens, UniProt P48740).
T2 sequence (P48740 20-699): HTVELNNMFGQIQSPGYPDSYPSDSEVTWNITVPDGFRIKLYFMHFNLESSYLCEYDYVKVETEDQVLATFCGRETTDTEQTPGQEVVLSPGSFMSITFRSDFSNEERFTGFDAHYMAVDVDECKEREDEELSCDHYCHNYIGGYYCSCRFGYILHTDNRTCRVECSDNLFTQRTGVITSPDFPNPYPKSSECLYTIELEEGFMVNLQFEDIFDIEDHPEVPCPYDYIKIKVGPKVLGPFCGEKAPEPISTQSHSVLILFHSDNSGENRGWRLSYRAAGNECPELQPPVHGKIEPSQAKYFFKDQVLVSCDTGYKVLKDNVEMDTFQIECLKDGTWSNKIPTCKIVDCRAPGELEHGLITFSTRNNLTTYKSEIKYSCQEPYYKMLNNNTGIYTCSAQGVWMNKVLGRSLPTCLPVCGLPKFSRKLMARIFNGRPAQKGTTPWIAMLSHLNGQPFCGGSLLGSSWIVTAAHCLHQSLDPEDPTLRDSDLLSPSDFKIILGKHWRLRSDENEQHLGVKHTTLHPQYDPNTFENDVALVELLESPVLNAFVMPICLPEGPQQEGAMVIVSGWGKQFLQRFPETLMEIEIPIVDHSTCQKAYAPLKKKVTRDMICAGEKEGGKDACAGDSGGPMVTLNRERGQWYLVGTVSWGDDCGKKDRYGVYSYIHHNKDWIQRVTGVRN
The following applies: known from Presanis et al. Mol. Immunol. 2003; cited from earlier work.

Test [2] has as its target T1, MASP-2. Briefly: Activity of recombinant MASP-2 on novel substrates. More on the design: Recombinant MASP-2 (active form) at 600 μg/ml was serially diluted. The note with it: serially diluted recombinant MASP-2, 37° C., 2 h, A405. Type of test: biochemical. As for the experimental part: Various dilutions of purified recombinant MASP-2 were tested for their response with wild-type pro-urokinase based detection and substrate 2 (table 1) based detection. MASP-2 was diluted in buffer to which wt pro-urokinase or pro-urokinase derivative 2 was added followed by pyro-Glu-Gly-Arg-pNA. The plate was incubated for 2h and A^405 was measured (see example 5 for details).
The activity of purified recombinant MASP-2 on wt pro-urokinase and substrate 2 was investigated. Recombinant MASP-2 (active form) at 600 μg/ml was serially diluted in 50 mM Tris HCl pH7.6, 1.5 mM NaCl, 0.5 mM CaCl2, 1 μM ZnCl2, 0.01% (v/v) BRIJ35™. To wells of a microtiter plate 100 μl of MASP-2 dilution, 10 μof wt pro-urokinase at approximately 50 μg/ml) or 10 μl substrate 2 (at approximately 75 μg/ml) were added, followed by 10 μl of peptide substrate pyro Glu-Gly-Arg-pNA (at 6 mM). The plate was incubated at 37° C. and absorbance change at 405 nm was followed in time for 2 h.
Target sequence in this assay (O00187 16-444 limits assumed): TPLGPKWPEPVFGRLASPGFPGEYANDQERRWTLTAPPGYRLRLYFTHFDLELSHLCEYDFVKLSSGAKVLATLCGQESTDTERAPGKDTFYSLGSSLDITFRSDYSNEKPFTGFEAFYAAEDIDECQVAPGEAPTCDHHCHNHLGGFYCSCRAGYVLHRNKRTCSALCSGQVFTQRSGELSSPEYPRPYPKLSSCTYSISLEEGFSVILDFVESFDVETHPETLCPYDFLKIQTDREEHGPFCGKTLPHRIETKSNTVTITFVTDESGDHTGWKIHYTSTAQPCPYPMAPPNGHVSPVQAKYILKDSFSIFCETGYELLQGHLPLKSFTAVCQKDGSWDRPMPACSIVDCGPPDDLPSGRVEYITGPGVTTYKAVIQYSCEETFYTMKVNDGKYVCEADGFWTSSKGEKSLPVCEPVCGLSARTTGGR
Target sequence in this assay (O00187 445-686 limits assumed): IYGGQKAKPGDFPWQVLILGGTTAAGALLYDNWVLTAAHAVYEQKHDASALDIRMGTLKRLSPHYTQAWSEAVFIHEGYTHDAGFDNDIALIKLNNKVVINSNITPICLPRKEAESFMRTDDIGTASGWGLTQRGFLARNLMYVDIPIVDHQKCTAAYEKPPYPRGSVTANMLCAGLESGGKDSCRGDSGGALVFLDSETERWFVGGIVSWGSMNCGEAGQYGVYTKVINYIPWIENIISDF

A further test concerns MBL-MASP complexes. Briefly: Determination of MBL-MASP complexes in serum with pro-urokinase substrates. The following applies: serum diluted 10-320 fold, mannan coated plate. Type of test: biochemical, human. The protocol:
A mannan-coated microtiter plate was used to bind and immobilize MBL-MASP complexes from heterozygous MBL-deficient serum (A/B genotype), homozygous MBL-deficient serum (B/B genotype) and normal serum (A/A genotype) in various dilutions. After washing, wild-type pro-urokinase or substrate 2 and chromogenic peptide pyro-Glu-Gly-Arg-pNA were added. The absorbance change at 405 nm was followed in time. The slopes of A405 versus time-squared graphs were taken as a measure of activity.
Based on the results of example 2 an assay for MBL-MASP complexes in serum was developed. Three different sera were used, serum […] MBL deficiency, serum (B/B) with an homozygous MBL deficiency and a normal serum (A/A). A microtiter plate was coated with mannan, washed and blocked as described in example 2.
Serum samples were diluted 10-320 fold in GVB++buffer (see example 2) and 100 μl of these dilutions were pipetted into wells of the coated microtiter plate. […]
To all wells 100 μl of detection buffer, 10 μl of either wild-type pro-urokinase or pro-urokinase derivative 2 at 7.6 μg/ml and 10 μl of pyro-Glu-Gly-Arg-pNA at 6 mM were added (see example 2). The plate was shaken and A^405 was followed in time with a microtiter plate reader. The slopes of the graphs of A^405 versus time squared were calculated and used as a measure of activity.

As for `COCCC[C@@H](NC(=O)[C@@H]1CCCN1C(=O)[C@@H](Cc1ccccc1)NC(=O)OCc1ccccc1)B1OC2C[C@@H]3C[C@@H](C3(C)C)[C@]2(C)O1` (stereo partly drawn) [BMpg, Z-D-Phe-Pro-methoxypropylboroglycine-pinanediolester], at MASP-2 [1], the “inhibition of MASP-2” value is “not MASP-2”. Moreover, the “effect on activity of the captured MBL-MASP complex (ΔA/h^2×1000)” value in the test with MBL-MASP complex was “no effect”. Further, the “inhibition of MASP-1” value on MASP-1 is on record as “inhibit MASP-1”.

In the case of “substrate 2: pro-urokinase mutant with activation site Asn-Leu-Thr-Arg-Ile-Val-Gly-Gly (SEQ ID NO:4) (NLTRIVGG; activation site)”, the “detection of MASP-2 activity” value with MASP-2 [2] is given as “can be detected”. The “activity in normal (A/A) serum (slope of A405 versus time squared)” value in the test on MBL-MASP complexes is recorded as “dose dependent activity”.

Source of the values: patent US7811771B2, “Method for the functional determination of mannan-binding-lectin associated serine proteases (MASPs) and complexes thereof” (Nederlandse Organisatie voor …, priority 2004, dated 2010).
